Marks after values point to notes of the source that are not given here. Blank lines part the entries; values can stand above or below the compound they belong to.
Assays:
[1] = Metabolism in pooled human liver microsomes without NADPH (esterase alone); type: in vitro ADME; conditions: human, pooled human liver microsomes without NADPH, pH 7.4, 2 μM final concentration, read-out: Esterase Est T½
Method: (§1) Pooled human liver microsomes were used as an in vitro model of drug metabolism. These microsomes contain both esterase and CYP450 drug metabolizing enzymes. Pooled human microsomes were suspended in Tris buffer (50 mM, pH 7.4) at a final concentration of 1 mg/mL of microsomal protein. Test compounds dissolved in acetonitrile:DMSO (1:99) were added to a final concentration of 2 μM. Incubations were performed at 37° C. and samples (50 μL) were collected after 5, 15, 30, 60 and 90 minutes and then were precipitated by the addition of 100 μL of acetonitrile containing Internal Standard and centrifuged at 14,000 rpm for 15 min at 4° C. Samples were analyzed by LC/MS/MS for the content of parent drug.
(§2) To determine the role of CYP450 in the metabolism, incubations were run either with or without an NADPH regenerating system−NADPH is an obligate cofactor for CYP450 enzymes. Incubations that included NADPH cofactor represent the total metabolism by CYP450+ esterase. […] Thus, when the relative decline of parent drug observed is greater in the presence of NADPH, the metabolism is CYP450-mediated. When the relative decline is equivalent in the presence and absence of cofactor the metabolism is esterase mediated.

[2] = test system: pooled human liver microsomes (esterase); assay: as above; type: in vitro ADME; conditions: 2 μM final concentration
Method: as §1, §2

[3] = Control incubation without microsomes (buffer stability); type: physicochemical; conditions: 2 μM final concentration, no microsomes; for half-life at 2 μM: buffer without microsomes (control incubation), pH 7.4, read-out: Buffer Est T½
Method: Pooled human liver microsomes were used as an in vitro model of drug metabolism. These microsomes contain both esterase and CYP450 drug metabolizing enzymes. […] Test compounds dissolved in acetonitrile:DMSO (1:99) were added to a final concentration of 2 μM. Incubations were performed at 37° C. and samples (50 μL) were collected after 5, 15, 30, 60 and 90 minutes and then were precipitated by the addition of 100 μL of acetonitrile containing Internal Standard and centrifuged at 14,000 rpm for 15 min at 4° C. Samples were analyzed by LC/MS/MS for the content of parent drug.
All of the compounds were stable.

[4] = target: T1, vitamin K epoxide reductase (VKER) (Bos taurus, UniProt Q6B4J2); assay: Vitamin K epoxide reductase inhibition, bovine liver microsomal preparation, residual vitamin K epoxide by HPLC; type: biochemical
T1 construct: Microsomes were prepared from fresh cow liver; from tissue; host or cells: fresh cow liver microsomes
T1 sequence (Q6B4J2 1-163): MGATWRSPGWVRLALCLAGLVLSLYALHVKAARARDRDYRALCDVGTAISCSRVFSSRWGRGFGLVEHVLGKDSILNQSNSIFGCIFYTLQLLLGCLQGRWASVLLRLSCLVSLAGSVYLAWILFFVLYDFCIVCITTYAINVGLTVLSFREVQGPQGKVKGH
Method: Compounds of the subject invention were tested against vitamin K epoxide reductase.
Briefly: increasing concentrations of compounds were incubated in the presence of vitamin K epoxide and in the presence of a bovine microsomal preparation containing vitamin K epoxide reductase. The amount of residual vitamin K epoxide at the end of the incubation period was directly proportional to the inhibitory activity of the test compounds on the enzyme.
Microsomes were prepared from fresh cow liver according to the method described in: “Purification of gamma-glutamyl carboxylase from bovine liver. Wu S M, Mutucumarana V P, and Stafford D W. Methods in Enzymology (1997) 282:346-57.”
Serial dilutions of test compounds were prepared as follows: Dissolve the test compounds to a final dilution of 10 mM either in water or in DMSO (if not soluble in water). From this mother solution, prepare 2 further dilutions by diluting it with water: one 200 μM solution and one 5 mM solution. Prepare a series of tubes as follows:
Remove 15 μL from tube 4 and add to tube 5, vortex, then remove 15 μL from tube 5 and add to tube 6, vortex, etc. . . . until 15 μL is added to tube 9. Vortex and then remove 15 μL from tube 9.
Prepare another set of 4 tubes and add 30 μL of water.
A reaction mixture consisting of 600 μL buffer (2.5M NaCl, 0.125M MOPS, pH7.5), 520 μL water, and 150 μL of 10% CHAPS was prepared. The tubes were kept on ice for 5 minutes and then 500 μL of microsomal preparation was added. The mixture was mixed by vortex and kept on ice for 10 min for sufficient solubilization. To this was added 150 μL of vitamin K epoxide solution (1.5 mg/ml in isopropanol), then again vortexed and kept on ice for 5 minutes. An aliquot (70 μL) of this reaction mix was added to each one of the series of tubes prepared as above and containing serial dilutions of test compounds in 30 μL of water. The tubes were then vortexed and then kept on ice for 5 min. To 2 of the water-containing tubes was added 500 μL of a stop reagent consisting of 5 volumes of 50 mM AgNO3 and 5 volumes of isopropanol. These 2 tubes were used to measure a zero value.
The tubes were placed in a 30 C mixer for 3 min and 5 μL of 100 mM DTT solution in water was added. The tubes were then vortexed and kept in the dark without shaking for another 20 min, at the end of which 500 μL of the stop reagent was added.
To each tube was then added 600 μL of a 100 μg/ml solution of vitamin E in hexane, the tubes were capped and then vortexed for 1 minute. The tubes were then centrifuged for 5 min at 5,000 g, and the upper layer (the hexane layer) was transferred to a series of fresh tubes. The hexane was evaporated at room temperature in the dark using a speedvac, and the resulting pellet was resuspended in 100 μL of methanol.
The amount of vitamin K epoxide in each sample was then measured using a HPLC determination method. Residual vitamin K epoxide was then plotted against test compound concentration.

[5] = test system: pooled human liver microsomes (CYP450 + esterase); assay: Metabolism in pooled human liver microsomes with NADPH (CYP450 + esterase); type: in vitro ADME; conditions: 2 μM final concentration
[6] = as above; type: in vitro ADME; conditions: human, pooled human liver microsomes with NADPH regenerating system, pH 7.4, 2 μM final concentration, read-out: CYP + Esterase Est T½
[7] = Broad cellular and biochemical receptor screening assay; conditions: concentrations up to 10 μM
human IKr (hERG) = target: T2, human IKr (hERG) (Homo sapiens, UniProt Q12809); assay: Whole-cell patch-clamp recording of IKr in stably transfected HEK-293 cells expressing the hERG gene; type: cell-based
T2 construct: expressed in transfected cells; host or cells: HEK-293, stably transfected
T2 sequence (Q12809 whole entry): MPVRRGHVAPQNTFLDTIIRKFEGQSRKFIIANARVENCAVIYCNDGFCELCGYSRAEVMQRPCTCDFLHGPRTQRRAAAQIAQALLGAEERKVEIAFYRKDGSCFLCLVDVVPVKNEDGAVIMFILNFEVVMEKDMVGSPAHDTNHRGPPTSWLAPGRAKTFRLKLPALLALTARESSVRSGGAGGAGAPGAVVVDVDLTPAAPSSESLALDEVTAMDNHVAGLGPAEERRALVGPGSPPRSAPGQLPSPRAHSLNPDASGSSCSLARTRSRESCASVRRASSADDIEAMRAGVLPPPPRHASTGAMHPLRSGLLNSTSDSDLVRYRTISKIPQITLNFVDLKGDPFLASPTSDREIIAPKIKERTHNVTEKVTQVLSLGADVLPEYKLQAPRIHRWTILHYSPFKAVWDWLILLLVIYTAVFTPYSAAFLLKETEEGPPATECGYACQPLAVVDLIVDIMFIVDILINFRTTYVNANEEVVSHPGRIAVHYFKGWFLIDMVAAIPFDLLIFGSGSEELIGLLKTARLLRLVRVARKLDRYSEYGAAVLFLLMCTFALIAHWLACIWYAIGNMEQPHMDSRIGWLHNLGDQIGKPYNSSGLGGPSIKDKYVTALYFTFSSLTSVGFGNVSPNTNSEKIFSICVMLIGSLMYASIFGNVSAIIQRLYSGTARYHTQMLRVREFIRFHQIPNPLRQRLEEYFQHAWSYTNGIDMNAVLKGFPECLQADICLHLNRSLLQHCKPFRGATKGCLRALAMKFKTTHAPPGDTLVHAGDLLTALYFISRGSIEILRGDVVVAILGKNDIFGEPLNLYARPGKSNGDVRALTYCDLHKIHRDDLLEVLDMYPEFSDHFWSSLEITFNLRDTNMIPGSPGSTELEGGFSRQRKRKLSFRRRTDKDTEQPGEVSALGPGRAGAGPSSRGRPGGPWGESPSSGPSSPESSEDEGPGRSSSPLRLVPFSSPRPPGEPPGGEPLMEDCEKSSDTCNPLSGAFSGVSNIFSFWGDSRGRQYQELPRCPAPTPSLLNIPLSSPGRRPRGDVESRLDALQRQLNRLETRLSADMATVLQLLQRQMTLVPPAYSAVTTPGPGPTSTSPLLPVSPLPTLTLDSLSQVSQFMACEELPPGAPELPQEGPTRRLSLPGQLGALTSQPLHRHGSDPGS
Method: Electrophysiological recordings of IKr in stably transfected HEK-293 cells were made in the whole cell configuration of the patch-clamp technique (Hamill et al, 1981) using an Axopatch 200B amplifier (Axon Instruments, Foster City, Calif.). Patch microelectrodes were pulled from 1.5-mm borosilicate glass tubing using a two-stage vertical pipette puller (Narishige, East Meadow, N.Y.). […] HEK-293 cells were plated in 35 mm plastic cell and tissue culture dishes for 2-3 days. For application of drug-containing solutions to cells, the SF-77B system (Warner Instrument Corp, Hamden, Conn.) was used. Solution exchanges were completed within 20 ms. Current data were digitized online using a DigiData 1200A analog-to-digital board (Axon Instruments) and stored on the hard disc of an IBM compatible Pentium computer (GP7-600 MHz, Gateway Computer, Sioux City, N. Dak.). […]
The effect of warfarin, 2,2,2-trifluoro-1-methyl-1-(trifluoromethyl)ethyl 4-[(4-hydroxy-2-oxo-2H-chromen-3-yl)methyl]benzoate and its corresponding acid metabolite, 4-[(4-hydroxy-2-oxo-2H-chromen-3-yl)methyl]benzoic acid on IKr was studied in a stably transfected HEK-293 cell line using a two-pulse protocol. […] Tail IKr amplitude was measured as the difference between the peak current and baseline current at −50 mV in control and in the presence of ATI-compounds when steady-state block was obtained.

Structure (SMILES): CC(OC(=O)c1ccc(Cc2c(O)c3ccccc3oc2=O)cc1)(C(F)(F)F)C(F)(F)F [2,2,2-trifluoro-1-methyl-1-(trifluoromethyl)ethyl 4-[(4-hydroxy-2-oxo-2H-chromen-3-yl)methyl]benzoate]
activity in broad cellular and biochemical receptor screening [7]: Nor did either compound exhibit significant activity | IC50 (human IKr (hERG)): > 100 µM

Structure (SMILES): O=C(O)c1ccc(Cc2c(O)c3ccccc3oc2=O)cc1 [4-[(4-hydroxy-2-oxo-2H-chromen-3-yl)methyl]benzoic acid]
activity in broad cellular and biochemical receptor screening [7]: Nor did either compound exhibit significant activity | IC50 (human IKr (hERG)): > 1000 µM

Structure (SMILES): CC(=O)CC(c1ccccc1)c1c(O)c2ccccc2oc1=O (stereo not shown) [Warfarin, reference compound]
IC50 [4]: 3 ± 0.8 µM

Structure (SMILES): CC(OC(=O)c1ccc(Cc2c(O)c3ccccc3oc2=O)cc1)(C(F)(F)F)C(F)(F)F [drawing 30]
half-life at 2 μM [1]: > 1.5 h | Esterase % Stability at 90 min [2]: 96% | Buffer % Stability at 90 min [3]: 92% | half-life at 2 μM [3]: > 1.5 h | IC50 [4]: 5.07 µM | CYP + Esterase % Stability at 90 min [5]: 90%** (>90 min) | half-life at 2 μM [6]: > 1.5 h

Continued, values first:

half-life at 2 μM [1]: > 1.5 h | Esterase % Stability at 90 min [2]: 70% | Buffer % Stability at 90 min [3]: 108% | half-life at 2 μM [3]: > 1.5 h | IC50 [4]: 3.38 µM | CYP + Esterase % Stability at 90 min [5]: 69% | half-life at 2 μM [6]: > 1.5 h
Structure (SMILES): CC(OC(=O)c1ccc(Cc2c(O)c3ccccc3oc2=O)cc1)C(F)(F)C(F)(F)F (racemic)

Buffer % Stability at 90 min [3]: 99% | half-life at 2 μM [3]: > 1.5 h | IC50 [4]: > 30 µM | CYP + Esterase % Stability at 90 min [5]: 101% | half-life at 2 μM [6]: > 1.5 h
Structure (SMILES): O=C(O)c1ccc(Cc2c(O)c3ccccc3oc2=O)cc1 [drawing 28]

Esterase Est T½ [2]: > 1.5 h | Esterase % Stability at 90 min [2]: 86% | Buffer % Stability at 90 min [3]: 123% | half-life at 2 μM [3]: > 1.5 h | IC50 [4]: 4.02 µM | CYP + Esterase Est T½ [5]: > 1.5 h | CYP + Esterase % Stability at 90 min [5]: 70%
Structure (SMILES): CC(OC(=O)c1ccc(Cc2c(O)c3ccccc3oc2=O)cc1)C(F)(F)C(F)(F)F (stereo not shown) [drawing 31]

Esterase Est T½ [2]: ~0.5 h | Esterase % Stability at 90 min [2]: 27% | Buffer % Stability at 90 min [3]: 113% | IC50 [4]: 4.15 µM | CYP + Esterase Est T½ [5]: ~0.5 h | CYP + Esterase % Stability at 90 min [5]: 24%
Structure (SMILES): CC(OC(=O)c1ccc(Cc2c(O)c3ccccc3oc2=O)cc1)C(F)(F)C(F)(F)F (stereo not shown) [drawing 32]

— US7932405B2, “Halogenated ester derivatives of coumarins for the treatment of coagulation disorders” (Aryx Therapeutics, Inc., priority 2007, dated 2011)
